Results: publication PMC11345841, “Exploring 2-Sulfonylpyrimidine Warheads as Acrylamide Surrogates for Targeted Covalent Inhibition: A BTK Story” (Journal of Medicinal Chemistry, 2024)

Key:
[1] = molecular target: T1, wild-type BTK (Homo sapiens, UniProt Q06187); assay: BTK in vitro activity assay (ADP-Glo, poly-Glu:Tyr phosphorylation, TCEP); conditions: for remaining activity at 0.1 µM: read-out: Remaining BTK activity (%); for inhibition at 0.1 µM: read-out: inhibition of BTK activity
[2] = molecular target: T1, wild-type BTK; assay: BTK in vitro activity assay in the presence of DTT vs TCEP (Figure S6); type: biochemical; conditions: 100 nM compound; 2 mM DTT instead of TCEP
Protocol: Left: activity of WT BTK in the presence of DTT (2 mM) or TCEP (1 mM)
(mean±range of duplicate determinations). Right: effect of compounds on wild type BTK
activity in the presence of TCEP or DTT. Compounds (100 nM) were pre-incubated with BTK
in the presence of TCEP or DTT for 10 min before initiating the reaction by addition of ATP.
Graphs show relative BTK kinase activity (mean±range from 2-4 determinations) relative to
DMSO control (i.e. no compound, set to 100%).

T1 sequence (Q06187 whole entry): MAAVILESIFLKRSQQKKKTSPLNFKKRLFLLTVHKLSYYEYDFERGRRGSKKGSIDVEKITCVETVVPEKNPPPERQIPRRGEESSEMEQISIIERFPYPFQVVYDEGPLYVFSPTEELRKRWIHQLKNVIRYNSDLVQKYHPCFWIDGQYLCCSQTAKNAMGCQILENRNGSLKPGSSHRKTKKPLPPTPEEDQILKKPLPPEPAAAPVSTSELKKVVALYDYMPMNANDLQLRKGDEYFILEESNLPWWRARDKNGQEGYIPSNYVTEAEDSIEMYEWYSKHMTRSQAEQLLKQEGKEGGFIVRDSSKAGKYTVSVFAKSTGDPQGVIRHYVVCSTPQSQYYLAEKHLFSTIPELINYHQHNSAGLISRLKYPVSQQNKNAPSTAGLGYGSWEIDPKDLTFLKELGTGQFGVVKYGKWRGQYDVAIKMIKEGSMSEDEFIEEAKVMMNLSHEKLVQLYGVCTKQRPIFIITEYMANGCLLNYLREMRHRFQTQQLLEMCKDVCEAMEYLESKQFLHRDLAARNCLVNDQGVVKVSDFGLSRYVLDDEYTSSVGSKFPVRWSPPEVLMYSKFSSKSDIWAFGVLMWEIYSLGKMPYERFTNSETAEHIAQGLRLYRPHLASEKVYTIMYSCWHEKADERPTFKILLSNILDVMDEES

Row | Structure (SMILES) | remaining activity at 0.1 µM [1] [%] | inhibition at 0.1 µM [1] [%] | BTK inhibition in the presence of DTT [2]
1 | Nc1ncnc2c1c(-c1ccc(Oc3ccccc3)cc1)nn2[C@H]1CCCN(C(=O)c2ccnc(S(=O)(=O)c3ccccc3)n2)C1 [Compound 5c, (3-(4-Amino-3-(4-phenoxyphenyl)-1H-pyrazolo[3,4-d]pyrimidin-1-yl)piperidin-1-yl)(2-(phenylsulfonyl)pyrimidin-4-yl)methanone] | 40 ± 1 | 40 to 60 | –
2 | CSc1ncc(Cl)c(C(=O)N2CCC[C@@H](n3nc(-c4ccc(Oc5ccccc5)cc4)c4c(N)ncnc43)C2)n1 [Compound 4d, (R)-(3-(4-Amino-3-(4-phenoxyphenyl)-1H-pyrazolo[3,4-d]pyrimidin-1-yl)piperidin-1-yl)(5-chloro-2-(methylthio)pyrimidin-4-yl)methanone] | 100 ± 6 | – | –
3 | CSc1ncc(N2CCCC(n3nc(-c4ccc(Oc5ccccc5)cc4)c4c(N)ncnc43)C2)c(C)n1 (stereo not drawn) [Compound 7e, 1-(1-(4-Methyl-2-(methylthio)pyrimidin-5-yl)piperidin-3-yl)-3-(4-phenoxyphenyl)-1H-pyrazolo[3,4-d]pyrimidin-4-amine] | 69 ± 2 | – | –
4 | CSc1ncc(C)c(N2CCCC(n3nc(-c4ccc(Oc5ccccc5)cc4)c4c(N)ncnc43)C2)n1 (stereo not drawn) [Compound 7a, 1-(1-(5-Methyl-2-(methylthio)pyrimidin-4-yl)piperidin-3-yl)-3-(4-phenoxyphenyl)-1H-pyrazolo[3,4-d]pyrimidin-4-amine] | 40 ± 0.3 | – | –
5 | CNC(=O)c1cnc(SC)nc1N1CCCC(n2nc(-c3ccc(Oc4ccccc4)cc3)c3c(N)ncnc32)C1 (stereo not drawn) [Compound 7d, 4-(3-(4-Amino-3-(4-phenoxyphenyl)-1H-pyrazolo[3,4-d]pyrimidin-1-yl)piperidin-1-yl)-N-methyl-2-(methylthio)pyrimidine-5-carboxamide] | 78 ± 2 | – | –
6 | Nc1ncnc2c1c(-c1ccc(Oc3ccccc3)cc1)nn2[C@@H]1CCCN(C(=O)c2ccncn2)C1 [Compound 12a, (R)-(3-(4-Amino-3-(4-phenoxyphenyl)-1H-pyrazolo[3,4-d]pyrimidin-1-yl)piperidin-1-yl)(pyrimidin-4-yl)methanone] | 53 ± 2 | – | –
7 | Cc1nc(S(C)(=O)=O)ncc1N1CCCC(n2nc(-c3ccc(Oc4ccccc4)cc3)c3c(N)ncnc32)C1 (stereo not drawn) [Compound 9a, 1-(1-(4-Methyl-2-(methylsulfonyl)pyrimidin-5-yl)piperidin-3-yl)-3-(4-phenoxyphenyl)-1H-pyrazolo[3,4-d]pyrimidin-4-amine] | 80 ± 3 | – | –
8 | CS(=O)(=O)c1nccc(N2CCC[C@@H](n3nc(-c4ccc(Oc5ccccc5)cc4)c4c(N)ncnc43)C2)n1 [Compound 8e, (R)-1-(1-(2-(Methylsulfonyl)pyrimidin-4-yl)piperidin-3-yl)-3-(4-phenoxyphenyl)-1H-pyrazolo[3,4-d]pyrimidin-4-amine] | 48 ± 0.3 | – | –
9 | CCCCS(=O)(=O)c1ncc(C(=O)N2CCCC(n3nc(-c4ccc(Oc5ccccc5)cc4)c4c(N)ncnc43)C2)cn1 (stereo in doubt) [Compound 5f, (R)-(3-(4-Amino-3-(4-phenoxyphenyl)-1H-pyrazolo[3,4-d]pyrimidin-1-yl)piperidin-1-yl)(2-(butylsulfonyl)pyrimidin-5-yl)methanone] | 38 ± 2 | 40 to 60 | –
10 | CCCCSc1nccc(C(=O)N2CCC[C@@H](n3nc(-c4ccc(Oc5ccccc5)cc4)c4c(N)ncnc43)C2)n1 [Compound 4b, (R)-(3-(4-Amino-3-(4-phenoxyphenyl)-1H-pyrazolo[3,4-d]pyrimidin-1-yl)piperidin-1-yl)(2-(butylthio)pyrimidin-4-yl)methanone] | 82 ± 1 | – | –
11 | CS(=O)(=O)c1nccc(C(=O)N2CCCC(n3nc(-c4ccc(Oc5ccccc5)cc4)c4c(N)ncnc43)C2)n1 (stereo in doubt) [Compound 5a, (R)-(3-(4-Amino-3-(4-phenoxyphenyl)-1H-pyrazolo[3,4-d]pyrimidin-1-yl)piperidin-1-yl)(2-(methylsulfonyl)pyrimidin-4-yl)methanone] | 17 ± 1 | 80 to 90 | –
12 | Nc1ncnc2c1c(-c1ccc(Oc3ccccc3)cc1)nn2[C@@H]1CCCN(C(=O)c2ccnc(Sc3ccccc3)n2)C1 [Compound 4c, (R)-(3-(4-Amino-3-(4-phenoxyphenyl)-1H-pyrazolo[3,4-d]pyrimidin-1-yl)piperidin-1-yl)(2-(phenylthio)pyrimidin-4-yl)methanone] | 98 ± 5 | – | –
13 | Nc1ncnc2c1c(-c1ccc(Oc3ccccc3)cc1)nn2[C@@H]1CCCN(C(=O)c2cnc(Sc3ccccc3)nc2)C1 [Compound 4g, (R)-(3-(4-Amino-3-(4-phenoxyphenyl)-1H-pyrazolo[3,4-d]pyrimidin-1-yl)piperidin-1-yl)(2-(phenylthio)pyrimidin-5-yl)methanone] | 100 ± 6 | – | –
14 | Nc1ncnc2c1c(-c1ccc(Oc3ccccc3)cc1)nn2C1CCCN(C(=O)c2cnc(S(=O)(=O)c3ccccc3)nc2)C1 (stereo in doubt) [Compound 5g, (R)-(3-(4-Amino-3-(4-phenoxyphenyl)-1H-pyrazolo[3,4-d]pyrimidin-1-yl)piperidin-1-yl)(2-(phenylsulfonyl)pyrimidin-5-yl)methanone] | 35 ± 1 | 40 to 60 | –
15 | CCCCS(=O)(=O)c1nccc(C(=O)N2CCC[C@H](n3nc(-c4ccc(Oc5ccccc5)cc4)c4c(N)ncnc43)C2)n1 [Compound 5b, (3-(4-Amino-3-(4-phenoxyphenyl)-1H-pyrazolo[3,4-d]pyrimidin-1-yl)piperidin-1-yl)(2-(butylsulfonyl)pyrimidin-4-yl)methanone] | 58 ± 3 | 40 to 60 | –
16 | Nc1ncnc2c1c(-c1ccc(Oc3ccccc3)cc1)nn2[C@@H]1CCCN(C(=O)c2cncnc2)C1 [Compound 12b, (R)-(3-(4-Amino-3-(4-phenoxyphenyl)-1H-pyrazolo[3,4-d]pyrimidin-1-yl)piperidin-1-yl)(pyrimidin-5-yl)methanone] | 83 ± 7 | – | –
17 | CS(=O)(=O)c1ncc(N2CCC[C@@H](n3nc(-c4ccc(Oc5ccccc5)cc4)c4c(N)ncnc43)C2)cn1 [Compound 9b, (R)-1-(1-(2-(Methylsulfonyl)pyrimidin-5-yl)piperidin-3-yl)-3-(4-phenoxyphenyl)-1H-pyrazolo[3,4-d]pyrimidin-4-amine] | 103 ± 5 | – | –
18 | CSc1ncc(C(=O)N2CCC[C@@H](n3nc(-c4ccc(Oc5ccccc5)cc4)c4c(N)ncnc43)C2)cn1 [Compound 4e, (R)-(3-(4-Amino-3-(4-phenoxyphenyl)-1H-pyrazolo[3,4-d]pyrimidin-1-yl)piperidin-1-yl)(2-(methylthio)pyrimidin-5-yl)methanone] | 83 ± 9 | – | –
19 | CCCCSc1ncc(C(=O)N2CCC[C@@H](n3nc(-c4ccc(Oc5ccccc5)cc4)c4c(N)ncnc43)C2)cn1 [Compound 4f, (R)-(3-(4-Amino-3-(4-phenoxyphenyl)-1H-pyrazolo[3,4-d]pyrimidin-1-yl)piperidin-1-yl)(2-(butylthio)pyrimidin-5-yl)methanone] | 84 ± 5 | – | –
20 | CCOC(=O)c1cnc(SC)nc1N1CCC[C@@H](n2nc(-c3ccc(Oc4ccccc4)cc3)c3c(N)ncnc32)C1 [Compound 7c, Ethyl (R)-4-(3-(4-Amino-3-(4-phenoxyphenyl)-1H-pyrazolo[3,4-d]pyrimidin-1-yl)piperidin-1-yl)-2-(methylthio)pyrimidine-5-carboxylate] | 105 ± 4 | – | –
21 | Nc1ncnc2c1c(-c1ccc(Oc3ccccc3)cc1)nn2[C@@H]1CCCN(C(=O)c2ccccc2)C1 [Compound 10, (R)-(3-(4-Amino-3-(4-phenoxyphenyl)-1H-pyrazolo[3,4-d]pyrimidin-1-yl)piperidin-1-yl)(phenyl)methanone] | 100 ± 0.2 | – | –
22 | CS(=O)(=O)c1ncc(Cl)c(C(=O)N2CCCC(n3nc(-c4ccc(Oc5ccccc5)cc4)c4c(N)ncnc43)C2)n1 (stereo in doubt) [Compound 5d, (R)-(3-(4-Amino-3-(4-phenoxyphenyl)-1H-pyrazolo[3,4-d]pyrimidin-1-yl)piperidin-1-yl)(5-chloro-2-(methylsulfonyl)pyrimidin-4-yl)methanone] | 17 ± 2 | 80 to 90 | almost no inhibition
23 | CS(=O)(=O)c1ncc(C(=O)N2CCCC(n3nc(-c4ccc(Oc5ccccc5)cc4)c4c(N)ncnc43)C2)cn1 (stereo in doubt) [Compound 5e, (R)-(3-(4-Amino-3-(4-phenoxyphenyl)-1H-pyrazolo[3,4-d]pyrimidin-1-yl)piperidin-1-yl)(2-(methylsulfonyl)pyrimidin-5-yl)methanone] | 9 ± 2 | 80 to 90 | –
24 | COC(=O)c1cnc(SC)nc1N1CCC[C@@H](n2nc(-c3ccc(Oc4ccccc4)cc3)c3c(N)ncnc32)C1 [Compound 7b, Methyl (R)-4-(3-(4-Amino-3-(4-phenoxyphenyl)-1H-pyrazolo[3,4-d]pyrimidin-1-yl)piperidin-1-yl)-2-(methylthio)pyrimidine-5-carboxylate] | 76 ± 2 | – | –
25 | CSc1nccc(C(=O)N2CCC[C@@H](n3nc(-c4ccc(Oc5ccccc5)cc4)c4c(N)ncnc43)C2)n1 [Compound 4a, (R)-(3-(4-Amino-3-(4-phenoxyphenyl)-1H-pyrazolo[3,4-d]pyrimidin-1-yl)piperidin-1-yl)(2-(methylthio)pyrimidin-4-yl)methanone] | 84 ± 8 | – | –
